Measured values as given in article PMC8802549 (The Journal of Immunology Author Choice, 2022).
pKd: −log10 of the molar value. Where two headings read alike, the source gives them in different places.

Columns and labels:
[1] = test system: BoLA-1*023:01 class I molecule; assay: Peptide–MHC class I binding assay (ELISA of p-MHC monomer folding); set-up: species or system bovine; details: for Peptide binding to BoLA-1*023:01 (folding in ELISA), in words: Fig. 1B, 10-mer and peptides with 1 or 2 aa deletions at N- or C-terminal end; for pKd: 25 nM BoLA-1*023:01, 150 nM bovine β2m, peptide 0–40 μM, 48 h 18°C, one-site specific binding fit, representative experiment, duplicates
Experimental: Folding of p-MHC class I complexes was assessed with an ELISA assay as described by Svitek et al. ([34]). The BoLA-1*023:01 molecule (25 nM) and bovine β2m molecule (150 nM) were incubated in a 96-well plate with Tp9_67–75 (Muguga, G1 to A9, or V2 to V9) peptides (Mimotopes, purity: 95%) at various peptide concentrations ranging from 0 to 40 μM. After an incubation of 48 h at 18°C, the complexes were transferred to another 96-well plate precoated with streptavidin (catalog number [cat #] 436014; Nunc), which captures biotinylated heavy chains, and incubated for 3 h at 4°C. After washing, the W6/32 mAb (cat # SC-32235; Santa Cruz Biotechnology, TX), which binds to a monomorphic epitope on β2m, but only when it is incorporated in p-MHC class I complexes, was added for 1 h at 4°C. After washing, anti-mouse IgG coupled to peroxidase (cat # A9917-1ML; Sigma-Aldrich) was added to the plate followed by incubation for an hour at room temperature and further rounds of washes. Colorimetric change was performed by adding the TMB Plus2 “Ready to Use” Substrate (cat # 4395H; Kem En Tec) for 10 min at room temperature. The reaction was stopped by adding H2SO4 (0.3 M), and OD was measured using a Synergy HT ELISA plate reader (BioTek) at 450 nm. Kd values were determined by performing a nonlinear regression curve fit (One-Site Specific Binding) with GraphPad Prism (version 6).
Statistical analyses of data were performed with GraphPad Prism version 6 software. To determine the Kd, binding, and half-life values, we performed a nonlinear regression curve fit (One-Site, Specific binding). R^2 values and confidence intervals were generated to assess curve fit and differences between Kd values. When comparing data generated with the ELISPOT assay with a single peptide concentration, we performed a one-way ANOVA with Dunnett’s correction for multiple comparison. When comparing data generated with the ELISPOT assay with varying peptide concentrations, we performed a two-way ANOVA with Dunnett’s correction for multiple comparison (main column effect). All datasets were compared with the data obtained with the Tp9_67–75 Muguga epitope. All experiments were repeated twice using duplicate measurements.

CTL 495 = assay: IFN-γ ELISPOT with Tp9-specific CTL line 495; type: cell-based, cattle; details: for IFN-γ ELISPOT stimulation of CTL 495, in words: Supplemental Fig. 1, minimal epitope peptides, relatively high peptide concentration; for IFN-γ ELISPOT response of CTL 495 vs Tp9_67–75 Muguga, in words: Fig. 3A, alanine/glycine-substituted peptides, 2.5 × 10^4 CD8+ cells/well, 20 h 37°C, reduced = SFU >15% lower than Tp9_67–75
Excerpt: (§1) Autologous T. parva Muguga-infected lymphocyte (TpM) lines from animals BF092, 4003, and 495 and TpM-specific bulk CTLs lines after immunization by ITM were established as previously described ([37]). In brief, PBMCs harvested from immunized animals were stimulated at least three times, at weekly intervals, by coculturing with irradiated autologous T. parva–infected cells (TpMs) at a ratio of 5–10:1 (TpMs:PBMC) in RPMI media containing 15% T cell growth factor ([38]). Cells were maintained in RPMI 1640 culture medium (Sigma-Aldrich) containing 10% heat-inactivated FCS (Life Technologies), 2 mM L-glutamine (Sigma-Aldrich), 1 mg/ml gentamicin (Carl-Roth), 100 UI/ml penicillin (Sigma-Aldrich), 100 mg/ml streptomycin (Sigma-Aldrich), 2-ME (BDH, final concentration: 50 μM ([39]); a detailed description of our protocols can be found in Ref. [40]). The CTL lines from 4003 (A14 homozygous) and 495 (A10/A14 heterozygous) were propagated by stimulating them with cesium-137–irradiated autologous TpM (the use of radioisotope and irradiator was per institutional radiation safety guidelines; the length of exposure for inhibiting replication was empirically determined and found to be optimal with an exposure of 30 min at a distance of 10 cm of the cesium-137 source at 265 rad/min using a top linear irradiator [Conservatome, Lyon, France]), at a ratio of 1:5–10 (CTL:TpMs), and supplementing the media with 2 ng/ml recombinant human IL-2 (Sigma) or 15% T cell growth factor. Cells were incubated at 37°C in a 5% CO2 humidified atmosphere. Both CTLs recognize the Tp9 Ag. CTL clone 8 was derived from the CTL 495 by limiting dilution.
IFN-γ ELISPOT assay was performed as previously described ([34]). In brief, a monoclonal anti-bovine IFN-γ Ab (cat # MCA1783; Serotec, Oxford, U.K.) was incubated overnight at 4°C on ELISPOT plates (cat # MAIPN4550; Millipore, Billerica, MA, USA) and then blocked with RPMI containing 10% heat-inactivated FCS for 2 h at 37°C. Peptides (purity: 95%; Mimotopes) were added at concentrations ranging from 0.1 to 1 μM and CD8^+ cells at 2.5 × 10^4 cells/well. The plates were incubated at 37°C for 20 h. Release of IFN-γ was monitored with primary rabbit polyclonal anti-bovine IFN-γ Ab (Sigma-Aldrich, St. Louis, MO, USA) and secondary alkaline phosphatase–conjugated monoclonal anti-rabbit IgG (cat # A2556; Sigma-Aldrich, St. Louis, MO). Development of plates was done by addition of the substrate solution Sigma Fast (BCIP/NBT, cat # B5655-25TAB; Sigma-Aldrich, St. Louis, MO). Plates were read using an automated ELISPOT reader (AID Classic ELISpot Reader).
Statistical analyses of data were performed with GraphPad Prism version 6 software. To determine the Kd, binding, and half-life values, we performed a nonlinear regression curve fit (One-Site, Specific binding). […]

[2] = biological target: BoLA-1*023:01 MHC class I molecule with bovine β2-microglobulin (bovine) (UniProt P01888); assay: ELISA
CTL 4003 = assay: IFN-γ ELISPOT with Tp9-specific CTL line 4003; type: cell-based, cattle; details: Fig. 3A; alanine/glycine-substituted peptides; 2.5 × 10^4 CD8+ cells/well, 20 h 37°C; reduced = SFU >15% lower than Tp9_67–75
Excerpt: as §1, with “Cells were maintained in RPMI 1640 culture medium (Sigma-Aldrich) containing 10% heat-inactivated FCS (Life Technologies), 2 mM L-glutamine (Sigma-Aldrich), 1 mg/ml gentamicin (Carl-Roth), 100 UI/ml penicillin (Sigma-Aldrich), 100 mg/ml streptomycin (Sigma-Aldrich), 2-ME (BDH, final concentration: 50 μM ([39]); a detailed description of our protocols can be found in Ref. [40]).” left out, “Cells were incubated at 37°C in a 5% CO2 humidified atmosphere. Both CTLs recognize the Tp9 Ag. CTL clone 8 was derived from the CTL 495 by limiting dilution.” left out
IFN-γ ELISPOT assay was performed as previously described ([34]). […] Release of IFN-γ was monitored with primary rabbit polyclonal anti-bovine IFN-γ Ab (Sigma-Aldrich, St. Louis, MO, USA) and secondary alkaline phosphatase–conjugated monoclonal anti-rabbit IgG (cat # A2556; Sigma-Aldrich, St. Louis, MO). […]

[3] = biological target: BoLA-1*023:01 MHC class I molecule with bovine β2-microglobulin (bovine) (UniProt P01888); assay: ELISA; remark: listed apart in the source

AKFPGMKK [Tp9_67–74, 8-mer Tp9 peptide with 2 aa deleted at the C-terminal end]
Peptide binding to BoLA-1*023:01 (folding in ELISA), in words [1]: showed binding | IFN-γ ELISPOT stimulation of CTL 495, in words (CTL 495): capacity to stimulate

AKFPGMKKSK [Tp9_67–76, 10-mer peptide from the T. parva (Muguga) Tp9 Ag]
Peptide binding to BoLA-1*023:01 (folding in ELISA), in words [1]: showed binding | IFN-γ ELISPOT stimulation of CTL 495, in words (CTL 495): capacity to stimulate

BoLA-1*023:01 control peptide
pKd [2]: 8.16

FPGMKKSK [Tp9_69–76, Tp9 peptide with 2 aa deleted at the N-terminal end]
Peptide binding to BoLA-1*023:01 (folding in ELISA), in words [1]: no folding can be measured

KFPGMKKSK [Tp9_68–76, Tp9 peptide with 1 aa deleted at the N-terminal end]
Peptide binding to BoLA-1*023:01 (folding in ELISA), in words [1]: no folding can be measured

Tp9A2 peptide (Tp9_(67–75) Muguga with alanine at position 2)
pKd [2]: 6.72

Tp9A3 peptide (Tp9_(67–75) Muguga with alanine at position 3)
pKd [2]: 7.06

Tp9A4 peptide (Tp9_(67–75) Muguga with alanine at position 4)
pKd [2]: 7.55

Tp9A5 peptide (Tp9_(67–75) Muguga with alanine at position 5)
pKd [2]: 7.64

Tp9A6 peptide (Tp9_(67–75) Muguga with alanine at position 6)
pKd [2]: 7.78

Tp9A7 peptide (Tp9_(67–75) Muguga with alanine at position 7)
pKd [2]: 8.00

Tp9A8 peptide (Tp9_(67–75) Muguga with alanine at position 8)
pKd [2]: 8.59

Tp9A9 peptide (Tp9_(67–75) Muguga with alanine at position 9)
pKd [2]: 7.82

Tp9A9: Tp9_67–75 Muguga with alanine substitution at position 9 (AKFPGMKKA)
IFN-γ ELISPOT response of CTL 4003 vs Tp9_67–75 Muguga, in words (CTL 4003): enhanced stimulation | pKd ([1]; Fig. 2 lower panel, alanine-substituted Tp9_67–75): 7.82 | IFN-γ ELISPOT response of CTL 495 vs Tp9_67–75 Muguga, in words (CTL 495): enhanced stimulation

Tp9G1 peptide (Tp9_(67–75) Muguga with glycine at position 1)
pKd [2]: 7.87

Tp9G1: Tp9_67–75 Muguga with glycine at position 1 (GKFPGMKKS)
IFN-γ ELISPOT response of CTL 4003 vs Tp9_67–75 Muguga, in words (CTL 4003): enhanced stimulation | pKd ([1]; Fig. 2 upper panel, alanine/glycine-substituted Tp9_67–75): 7.87 | IFN-γ ELISPOT response of CTL 495 vs Tp9_67–75 Muguga, in words (CTL 495): enhanced stimulation

Tp9_(67–75) Muguga epitope peptide
pKd [3]: 7.53 | pKd [2]: 7.86
